target: human CXCR3A (Homo sapiens (Human), UniProt P49682); assay: FLIPR assay; assay type: cell-based; conditions: CHO-K1 cells expressing the human CXCR3A coupled to Galpha(16); CXCL10 agonist 20 nM; Fluo-4-AM fluorescence; mean values if determined several times
Protocol: The bioactivity of compounds is tested in a fluorometric imaging plate reader (FLIPR: Molecular Devices) using engineered CHO-K1 cells expressing the human CXCR3A coupled to a G protein (Galpha(16)). Cells are plated the day prior to bioassay in F12 medium supplemented with 10% FBS and G418 and hygromycin antibiotics to maintain recombinant selection. At the day of bioassay, cells are washed and dye loaded for one hour with Fluo-4-AM (Invitrogen) in Hanks Balanced Salt Solution (Invitrogen), buffered with 20 mM Hepes at pH 7.4 and sodium bicarbonate (0.015%), containing 5 mM probenecid. […] Cells are washed free of excess dye and 60 microliter of wash buffer is added. Stock solutions of test compounds are made up at a concentration of 10 mM in DMSO, and serially diluted in dilution buffer to concentrations required for inhibition dose response curves. After a 10 minute incubation period at 37° C., 10 microliters of each compound dilution are transferred from a compound plate to the plate containing the recombinant cells in the FLIPR instrument according to the manufacturer's instructions. Following basal readings, 10 microliter CXCL10 agonist at a concentration of 20 nM (from Peprotech) is added, again using the FLIPR instrument. Changes in fluorescence are monitored before and after addition of the test compounds. Emission peak values above base level after CXCL10 addition are exported after base line subtraction. The program XLfit is used to fit the data to a single site dose response curve and to calculate IC50 values.

human CXCR3A, sequence (P49682 whole entry): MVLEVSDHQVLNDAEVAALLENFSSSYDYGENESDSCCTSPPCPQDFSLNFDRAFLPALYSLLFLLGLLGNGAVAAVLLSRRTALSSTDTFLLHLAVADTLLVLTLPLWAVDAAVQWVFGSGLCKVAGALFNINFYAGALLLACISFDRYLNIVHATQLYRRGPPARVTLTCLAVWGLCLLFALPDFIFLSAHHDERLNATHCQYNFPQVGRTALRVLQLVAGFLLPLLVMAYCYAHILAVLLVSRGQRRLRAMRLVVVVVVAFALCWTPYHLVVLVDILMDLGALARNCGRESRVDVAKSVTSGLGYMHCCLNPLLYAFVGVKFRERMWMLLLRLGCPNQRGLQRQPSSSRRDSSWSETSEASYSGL

Row | IC50 [nM] | Compound
1 | 111 | O=C(Cn1c(C(F)(F)F)nc2ccccc21)N1CCN(c2scnc2-c2nc3ccccc3[nH]2)CC1 [Example 64, 1-{4-[4-(1H-Benzoimidazol-2-yl)-thiazol-5-yl]-piperazin-1-yl}-2-(2-trifluoromethyl-benzoimidazol-1-yl)-ethanone]
2 | 92 | Cc1cc(C)n(CC(=O)N2CCN(c3scnc3-c3nc4ccccc4[nH]3)CC2)n1 [Example 13, 1-{4-[4-(1H-Benzoimidazol-2-yl)-thiazol-5-yl]-piperazin-1-yl}-2-(3,5-dimethyl-pyrazol-1-yl)-ethanone]
3 | 6 | C[C@@H]1CN(c2scnc2-c2nc3ccccc3[nH]2)CCN1C(=O)Cn1ccc2ncc(Cl)nc21 [Example 140, 1-{(R)-4-[4-(1H-Benzoimidazol-2-yl)-thiazol-5-yl]-2-methyl-piperazin-1-yl}-2-(3-chloro-pyrrolo[2,3-b]pyrazin-5-yl)-ethanone]
4 | 10 | Cn1c(=O)n(CC(=O)N2CCN(c3scnc3-c3nc4ccc(CO)cc4[nH]3)CC2)c2ccccc21 [Example 76, 1-(2-{4-[4-(6-Hydroxymethyl-1H-benzoimidazol-2-yl)-thiazol-5-yl]-piperazin-1-yl}-2-oxo-ethyl)-3-methyl-1,3-dihydro-benzoimidazol-2-one]
5 | 88 | COc1ccc2c(CC(=O)N3CCN(c4scnc4-c4nc5ccccc5[nH]4)C[C@H]3C)coc2c1 [Example 135, 1-{(R)-4-[4-(1H-Benzoimidazol-2-yl)-thiazol-5-yl]-2-methyl-piperazin-1-yl}-2-(6-methoxy-benzofuran-3-yl)-ethanone]
6 | 4 | N#Cc1cn(CC(=O)N2CCN(c3scnc3-c3nc4ccccc4[nH]3)CC2)c2ccccc12 [Example 59, 1-(2-{4-[4-(1H-Benzoimidazol-2-yl)-thiazol-5-yl]-piperazin-1-yl}-2-oxo-ethyl)-1H-indole-3-carbonitrile]
7 | 112 | O=C(Cn1ccc2ccc(C(F)(F)F)cc21)N1CCN(c2scnc2-c2nc3ccccc3[nH]2)CC1 [Example 54, 1-{4-[4-(1H-Benzoimidazol-2-yl)-thiazol-5-yl]-piperazin-1-yl}-2-(6-trifluoromethyl-indol-1-yl)-ethanone]
8 | 8 | Cc1ccc2onc(CC(=O)N3CCN(c4scnc4-c4nc5ccccc5[nH]4)C[C@H]3C)c2c1 [Example 131, 1-{(R)-4-[4-(1H-Benzoimidazol-2-yl)-thiazol-5-yl]-2-methyl-piperazin-1-yl}-2-(5-methyl-benzo[d]isoxazol-3-yl)-ethanone]
9 | 77 | O=C(Cn1ccc2cccnc21)N1CCN(c2sc(-c3ccccc3)nc2-c2nc3ccccc3[nH]2)CC1 [Example 41, 1-{4-[4-(1H-Benzoimidazol-2-yl)-2-phenyl-thiazol-5-yl]-piperazin-1-yl}-2-pyrrolo[2,3-b]pyridin-1-yl-ethanone]
10 | 4 | Cn1c(=O)n(CC(=O)N2CCN(c3scnc3-c3nc4c(Cl)cccc4[nH]3)CC2)c2ccccc21 [Example 29, 1-(2-{4-[4-(4-Chloro-1H-benzoimidazol-2-yl)-thiazol-5-yl]-piperazin-1-yl}-2-oxo-ethyl)-3-methyl-1,3-dihydro-benzoimidazol-2-one]
11 | 130 | Cc1ccn(CC(=O)N2CCN(c3scnc3-c3nc4ccccc4[nH]3)CC2)n1 [Example 6, 1-{4-[4-(1H-Benzoimidazol-2-yl)-thiazol-5-yl]-piperazin-1-yl}-2-(3-methyl-pyrazol-1-yl)-ethanone]
12 | 0.5 | Cc1c(Cl)ccc2[nH]c(-c3ncsc3N3CCN(C(=O)Cn4cnc5cccnc54)[C@H](C)C3)nc12 [Example 94, 1-{(R)-4-[4-(5-Chloro-4-methyl-1H-benzoimidazol-2-yl)-thiazol-5-yl]-2-methyl-piperazin-1-yl}-2-imidazo[4,5-b]pyridin-3-yl-ethanone]
13 | 2 | C[C@@H]1CN(c2scnc2-c2nc3c(F)c(F)ccc3[nH]2)CCN1C(=O)Cn1cnc2cccnc21 [Example 90, 1-{(R)-4-[4-(4,5-Difluoro-1H-benzoimidazol-2-yl)-thiazol-5-yl]-2-methyl-piperazin-1-yl}-2-imidazo[4,5-b]pyridin-3-yl-ethanone]
14 | 78 | O=C1CCN(CC(=O)N2CCN(c3scnc3-c3nc4ccccc4[nH]3)CC2)c2ccccc21 [Example 107, 1-(2-{4-[4-(1H-Benzoimidazol-2-yl)-thiazol-5-yl]-piperazin-1-yl}-2-oxo-ethyl)-2,3-dihydro-1H-quinolin-4-one]
15 | 11 | C[C@@H]1CN(c2scnc2-c2nc3cc(Cl)ccc3[nH]2)CCN1C(=O)CN1CCc2ccccc21 [Example 145, 1-{(R)-4-[4-(5-Chloro-1H-benzoimidazol-2-yl)-thiazol-5-yl]-2-methyl-piperazin-1-yl}-2-(2,3-dihydro-indol-1-yl)-ethanone]
16 | 4 | O=C(Cn1ccc2ccc(F)cc21)N1CCN(c2scnc2-c2nc3ccccc3[nH]2)CC1 [Example 56, 1-{4-[4-(1H-Benzoimidazol-2-yl)-thiazol-5-yl]-piperazin-1-yl}-2-(6-fluoro-indol-1-yl)-ethanone]
17 | 14 | COCCOc1ccc2[nH]c(-c3ncsc3N3CCN(C(=O)Cn4c(=O)n(C)c5ccccc54)CC3)nc2c1 [Example 102, 1-[2-(4-{4-[5-(2-Methoxy-ethoxy)-1H-benzoimidazol-2-yl]-thiazol-5-yl}-piperazin-1-yl)-2-oxo-ethyl]-3-methyl-1,3-dihydro-benzoimidazol-2-one]
18 | 115 | C[C@@H]1CN(c2scnc2-c2nc3ccccc3[nH]2)CCN1C(=O)Cc1csc2ccc(Cl)cc12 [Example 134, 1-{(R)-4-[4-(1H-Benzoimidazol-2-yl)-thiazol-5-yl]-2-methyl-piperazin-1-yl}-2-(5-chloro-benzo[b]thiophen-3-yl)-ethanone]
19 | 69 | 1-{(R)-4-[4-(1H-Benzoimidazol-2-yl)-thiazol-5-yl]-2-methoxymethyl-piperazin-1-yl}-2-pyrrolo[2,3-b]pyridin-1-yl-ethanone [Example 20]
20 | 34 | Cc1cc2ccccc2n1CC(=O)N1CCN(c2scnc2-c2nc3ccccc3[nH]2)CC1 [Example 58, 1-{4-[4-(1H-Benzoimidazol-2-yl)-thiazol-5-yl]-piperazin-1-yl}-2-(2-methyl-indol-1-yl)-ethanone]
21 | 6 | COc1cc2c(ccn2CC(=O)N2CCN(c3scnc3-c3nc4ccccc4[nH]3)CC2)cc1Cl [Example 62, 1-{4-[4-(1H-Benzoimidazol-2-yl)-thiazol-5-yl]-piperazin-1-yl}-2-(5-chloro-6-methoxy-indol-1-yl)-ethanone]
22 | 490 | C[C@@H]1CN(c2scnc2-c2nc3ccccc3[nH]2)CCN1C(=O)Cc1c[nH]c2ccc(Cl)cc12 [Example 127, 1-{(R)-4-[4-(1H-Benzoimidazol-2-yl)-thiazol-5-yl]-2-methyl-piperazin-1-yl}-2-(5-chloro-1H-indol-3-yl)-ethanone]
23 | 4 | O=C(Cn1ccc2cccc(F)c21)N1CCN(c2scnc2-c2nc3ccccc3[nH]2)CC1 [Example 108, 1-{4-[4-(1H-Benzoimidazol-2-yl)-thiazol-5-yl]-piperazin-1-yl}-2-(7-fluoro-indol-1-yl)-ethanone]
24 | 68 | COc1ccc2[nH]cc(CC(=O)N3CCN(c4scnc4-c4nc5ccccc5[nH]4)C[C@H]3C)c2c1 [Example 126, 1-{(R)-4-[4-(1H-Benzoimidazol-2-yl)-thiazol-5-yl]-2-methyl-piperazin-1-yl}-2-(5-methoxy-1H-indol-3-yl)-ethanone]
25 | 448 | O=C(Cn1cnc2cccnc21)N1CCC(c2scnc2-c2nc3ccccc3[nH]2)CC1 [Example 48, 1-{4-[4-(1H-Benzoimidazol-2-yl)-thiazol-5-yl]-piperidin-1-yl}-2-imidazo[4,5-b]pyridin-3-yl-ethanone]
26 | 69 | COc1ccc2ccn(CC(=O)N3CCN(c4scnc4-c4nc5ccccc5[nH]4)CC3)c2n1 [Example 69, 1-{4-[4-(1H-Benzoimidazol-2-yl)-thiazol-5-yl]-piperazin-1-yl}-2-(6-methoxy-pyrrolo[2,3-b]pyridin-1-yl)-ethanone]
27 | 71 | C[C@@H]1CN(c2scnc2-c2nc3ccccc3[nH]2)CCN1C(=O)Cc1cn(C)c2ccccc12 [Example 125, 1-{(R)-4-[4-(1H-Benzoimidazol-2-yl)-thiazol-5-yl]-2-methyl-piperazin-1-yl}-2-(1-methyl-1H-indol-3-yl)-ethanone]
28 | 23 | Cc1ccccc1-c1nc(-c2nc3ccccc3[nH]2)c(N2CCN(C(=O)Cn3cnc4cccnc43)[C@H](C)C2)s1 [Example 81, 1-{(R)-4-[4-(1H-Benzoimidazol-2-yl)-2-o-tolyl-thiazol-5-yl]-2-methyl-piperazin-1-yl}-2-imidazo[4,5-b]pyridin-3-yl-ethanone]
29 | 280 | COc1ccc(CC(=O)N2CCN(c3scnc3-c3nc4ccccc4[nH]3)CC2)c(F)c1 [Example 111, 1-{4-[4-(1H-Benzoimidazol-2-yl)-thiazol-5-yl]-piperazin-1-yl}-2-(2-fluoro-4-methoxy-phenyl)-ethanone]
30 | 89 | O=C(CN1CCCc2ccccc21)N1CCN(c2scnc2-c2nc3ccccc3[nH]2)CC1 [Example 105, 1-{4-[4-(1H-Benzoimidazol-2-yl)-thiazol-5-yl]-piperazin-1-yl}-2-(3,4-dihydro-2H-quinolin-1-yl)-ethanone]
